Legend:
Assay in all cases: relative viability (nuclei count vs DMSO), 5 days (fraction); higher = more cells survive
Alpelisib + Pictilisib = compound: Cc1nc(NC(=O)N2CCC[C@H]2C(N)=O)sc1-c1ccnc(C(C)(C)C(F)(F)F)c1 [Alpelisib] + CS(=O)(=O)N1CCN(Cc2cc3nc(-c4cccc5[nH]ncc45)nc(N4CCOCC4)c3s2)CC1 [Pictilisib] (partner 1 µM)
Outline: (§1)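 Relative viability divides the nuclei count in treated wells by that in vehicle wells. Lung cancer cell lines were seeded in 1536-well plates, dosed by pin tool the next day, and fixed and stained after 5 days in one step with final 0.05% Triton X-100, 1% formaldehyde and 1 ug/ml Hoechst. Dosing was a single drug or a fixed anchor-drug dose plus five library-drug doses (not always all listed) in √10 steps, and values are medians of duplicate plates imaged at 4×.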

Alpelisib + Palbociclib = compound: Cc1nc(NC(=O)N2CCC[C@H]2C(N)=O)sc1-c1ccnc(C(C)(C)C(F)(F)F)c1 [Alpelisib] + CC(=O)c1c(C)c2cnc(Nc3ccc(N4CCNCC4)cn3)nc2n(C2CCCC2)c1=O [Palbociclib] (partner 0.5 µM)
Outline: as §1

OSI-027 + Crizotinib = compound: COc1cccc2cc(-c3nc([C@H]4CC[C@H](C(=O)O)CC4)n4ncnc(N)c34)[nH]c12 [OSI-027] + C[C@@H](Oc1cc(-c2cnn(C3CCNCC3)c2)cnc1N)c1c(Cl)ccc(F)c1Cl [Crizotinib] (partner 1 µM)
Outline: as §1

Alpelisib + Tozasertib = compound: Cc1nc(NC(=O)N2CCC[C@H]2C(N)=O)sc1-c1ccnc(C(C)(C)C(F)(F)F)c1 [Alpelisib] + Cc1cc(Nc2cc(N3CCN(C)CC3)nc(Sc3ccc(NC(=O)C4CC4)cc3)n2)n[nH]1 [Tozasertib] (partner 0.1 µM)
Outline: as §1

Row | Cell Line | relative viability (Alpelisib + Pictilisib; first compound 0.04 µM) | relative viability (Alpelisib + Pictilisib; first compound 0.1265 µM) | relative viability (Alpelisib + Pictilisib; first compound 0.4 µM) | relative viability (Alpelisib + Pictilisib; first compound 1.265 µM) | relative viability (Alpelisib + Pictilisib; first compound 4 µM) | relative viability (Alpelisib + Palbociclib; first compound 0.04 µM) | relative viability (Alpelisib + Palbociclib; first compound 0.1265 µM) | relative viability (Alpelisib + Palbociclib; first compound 0.4 µM) | relative viability (Alpelisib + Palbociclib; first compound 1.265 µM) | relative viability (Alpelisib + Palbociclib; first compound 4 µM) | relative viability (OSI-027 + Crizotinib; first compound 0.01 µM) | relative viability (OSI-027 + Crizotinib; first compound 0.03162 µM) | relative viability (OSI-027 + Crizotinib; first compound 0.1 µM) | relative viability (OSI-027 + Crizotinib; first compound 0.3162 µM) | relative viability (OSI-027 + Crizotinib; first compound 1 µM) | relative viability (Alpelisib + Tozasertib; first compound 0.04 µM) | relative viability (Alpelisib + Tozasertib; first compound 0.1265 µM) | relative viability (Alpelisib + Tozasertib; first compound 0.4 µM) | relative viability (Alpelisib + Tozasertib; first compound 1.265 µM) | relative viability (Alpelisib + Tozasertib; first compound 4 µM)
1 | 201T | 0.655 | 0.725 | 0.637 | 0.642 | 0.62 | 0.374 | 0.335 | 0.357 | 0.315 | 0.29 | 1.05 | 1.11 | 1.08 | 1.03 | 0.847 | 0.934 | 0.918 | 0.917 | 0.838 | 0.8
2 | A549 | 0.464 | 0.504 | 0.529 | 0.414 | 0.338 |  |  |  |  |  | 0.782 | 0.711 | 0.704 | 0.45 | 0.167 |  |  |  |  | 
3 | A-427 | 0.694 | 0.641 | 0.741 | 0.675 | 0.718 | 0.5 | 0.507 | 0.521 | 0.493 | 0.437 | 0.91 | 0.821 | 0.866 | 0.673 | 0.374 | 0.225 | 0.196 | 0.244 | 0.198 | 0.194
4 | ABC-1 | 0.721 | 0.775 | 1.05 | 0.627 | 0.477 | 0.653 | 0.611 | 0.732 | 0.385 | 0.454 | 1.23 | 0.881 | 1.1 | 0.957 | 0.47 | 0.175 | 0.157 | 0.155 | 0.195 | 0.188
5 | BEN | 0.562 | 0.523 | 0.705 | 0.579 | 0.578 | 0.485 | 0.504 | 0.516 | 0.439 | 0.447 | 0.921 | 0.545 | 0.612 | 0.34 | 0.393 | 0.552 | 0.443 | 0.571 | 0.521 | 0.484
6 | CAL-12T | 0.388 |  | 0.65 |  | 0.329 | 0.413 | 0.38 | 0.647 | 0.415 | 0.355 | 0.567 | 0.568 | 0.62 | 0.718 | 0.487 | 0.295 | 0.308 | 0.246 | 0.212 | 0.317
7 | COR-L23 | 0.744 | 0.79 | 0.865 | 0.594 | 0.636 | 0.271 | 0.241 | 0.253 | 0.215 | 0.212 | 0.688 | 0.549 | 0.674 | 0.985 | 0.4 | 0.205 | 0.208 | 0.218 | 0.19 | 0.13
8 | COR-L 105 | 0.39 | 0.352 | 0.435 | 0.378 | 0.341 | 0.394 | 0.439 | 0.414 | 0.367 | 0.364 | 0.754 | 0.741 | 0.766 | 0.894 | 0.415 | 0.372 | 0.343 | 0.591 | 0.306 | 0.334
9 | Calu-6 | 0.86 | 0.945 | 1.09 | 0.819 | 0.841 |  |  |  |  |  | 0.806 | 0.726 | 0.765 | 0.626 | 0.625 |  |  |  |  | 
10 | ChaGo-K-1 | 0.714 |  | 0.883 | 0.625 | 0.492 | 0.958 | 0.965 | 1 | 0.747 | 0.584 | 1.38 | 1.02 | 1.2 | 0.997 | 0.922 | 0.202 | 0.202 | 0.211 | 0.194 | 0.197
11 | EBC-1 | 0.417 | 0.345 | 0.412 | 0.298 | 0.349 |  |  |  |  |  | 0.21 | 0.21 | 0.183 | 0.184 | 0.164 |  |  |  |  | 
12 | EKVX | 0.441 | 0.419 | 0.419 | 0.466 | 0.428 | 0.349 | 0.325 | 0.386 | 0.313 | 0.242 | 0.92 | 0.816 | 1.03 | 0.822 | 0.513 | 0.346 | 0.308 | 0.499 | 0.333 | 0.198
13 | EMC-BAC-2 | 0.512 | 0.516 | 0.62 | 0.528 | 0.479 | 0.5 | 0.481 | 0.505 | 0.348 | 0.324 | 0.752 | 0.786 | 0.737 | 0.683 | 0.416 | 0.294 | 0.255 | 0.307 | 0.242 | 0.242
14 | EPLC-272H | 0.338 | 0.282 | 0.298 | 0.336 | 0.262 | 0.289 | 0.333 | 0.324 | 0.291 | 0.267 | 1.05 | 0.872 | 0.944 | 0.697 | 0.787 | 0.256 | 0.326 | 0.513 | 0.203 | 0.173
15 | H3255 | 0.409 | 0.516 | 0.533 | 0.356 | 0.411 | 0.333 | 0.321 | 0.333 | 0.296 | 0.264 | 0.842 | 0.838 | 0.76 | 0.886 | 0.587 | 0.702 | 0.683 | 0.767 | 0.431 | 0.438
16 | HARA | 0.3 | 0.488 | 0.459 | 0.326 | 0.244 | 0.295 | 0.25 | 0.257 | 0.172 | 0.156 | 1.07 | 0.85 | 0.999 | 1.09 | 0.407 | 0.109 | 0.074 | 0.107 | 0.0657 | 0.0666
17 | HCC-15 | 0.721 | 0.673 | 0.822 | 0.716 | 0.63 | 0.749 | 0.702 | 0.773 | 0.617 | 0.551 | 0.933 | 0.712 | 0.789 | 0.732 | 0.482 | 0.352 | 0.373 | 0.487 | 0.336 | 0.263
